Experimental data published in US9364458B2, “Stabilized pharmaceutical dosage forms comprising atrasentan” (AbbVie Inc., priority 2013, dated 2016).
Where a name gives a salt, the structure may show the parent alone. One block for each molecule: values may come before it.

Experiments:
[1] = Dispersive surface energy by inverse gas chromatography; type: physicochemical
Experimental: Wet granulation blends prepared as described in Method 2 (atrasentan added dry to granulation bowl) and Method 3 (atrasentan added as HPMC suspension to granulation bowl) of Example 6 were analyzed prior to compression using inverse gas chromatography (“IGC”) to determine the surface energy of the blends. These measurements were compared to the measured values for pure atrasentan and pure HPMC.

[2] = Impurities / degradation products by HPLC in stability testing; type: physicochemical; settings: mixtures with atrasentan and crospovidone, 80° C.
[3] = test system: subjects with diabetic nephropathy; test: Phase IIb clinical trials of atrasentan; type: in vivo, human
Text: The low dosing and the narrow therapeutic window for atrasentan have been confirmed through analysis of the data collected from recent Phase IIb clinical trials in subjects with diabetic nephropathy. These Phase IIb clinical trials evaluated the safety and efficacy of atrasentan to identify an appropriate balance between the systemic effects of atrasentan (which can lead to adverse side effects such as edema) and the efficacy effects of atrasentan. […] Reduction of residual albuminuria and the urinary-albumin-to-creatine ratio are surrogate endpoints generally associated with delaying the progression of end-stage renal disease and associated cardiovascular complications.

[4] = about 0.25 mg to about 1.25 mg daily
[5] = daily dose greater than about 1.25 mg

DISPERSIVE SURFACE ENERGY ([1]; Average): 50.9 mJ · m^−2 | DISPERSIVE SURFACE ENERGY ([1]; Run 1): 50.6 mJ · m^−2 | DISPERSIVE SURFACE ENERGY ([1]; Run 2): 51.4 mJ · m^−2
SMILES: CCCCN(CCCC)C(=O)CN1C[C@H](c2ccc3c(c2)OCO3)[C@@H](C(=O)O)[C@@H]1c1ccc(OC)cc1 [Atrasentan Monohydrochloride]

SMILES: Cl.N[C@@H](CS)C(=O)O.O [L-cysteine hydrochloride monohydrate]
stabilizing effect among the three anti-oxidants [2]: greatest stabilizing effect

SMILES: CCCCN(CCCC)C(=O)CN1C[C@H](c2ccc3c(c2)OCO3)[C@@H](C(=O)O)[C@@H]1c1ccc(OC)cc1 [atrasentan, (2R,3R,4S)-4-(1,3-benzodioxol-5-yl)-1-[2-(dibutylamino)-2-oxoethyl]-2-(4-methoxyphenyl)pyrrolidine-3-carboxylic acid]
residual albuminuria [3, 4]: significantly reduce | urinary-albumin-to-creatine ratio [3, 4]: significantly reduce | adverse effects, particularly peripheral edema [3, 5]: increase in adverse effects | efficacy relative to the 1.25 mg daily dose [3, 5]: without any further improvement in efficacy | efficacy of daily dose ([3]; daily dose less than about 0.25 mg): sub-therapeutic
